According to US11040035B2, “3-oxo-2,6-diphenyl-2,3-dihydropyridazine-4-carboxamides” (BAYER PHARMA AKTIENGESELLSCHAFT, priority 2016, dated 2021):

Columns and labels:
AHR [1] = target: T1, AHR (Homo sapiens, UniProt P35869); experiment: In vitro assay 2: agonism in human cell line (transactivation assay); conditions: Assay 2: AHR-luc Hum Agonism IC50 [M], no kynurenic acid, 20 hours, firefly luciferase
T1 sequence (P35869 11-848): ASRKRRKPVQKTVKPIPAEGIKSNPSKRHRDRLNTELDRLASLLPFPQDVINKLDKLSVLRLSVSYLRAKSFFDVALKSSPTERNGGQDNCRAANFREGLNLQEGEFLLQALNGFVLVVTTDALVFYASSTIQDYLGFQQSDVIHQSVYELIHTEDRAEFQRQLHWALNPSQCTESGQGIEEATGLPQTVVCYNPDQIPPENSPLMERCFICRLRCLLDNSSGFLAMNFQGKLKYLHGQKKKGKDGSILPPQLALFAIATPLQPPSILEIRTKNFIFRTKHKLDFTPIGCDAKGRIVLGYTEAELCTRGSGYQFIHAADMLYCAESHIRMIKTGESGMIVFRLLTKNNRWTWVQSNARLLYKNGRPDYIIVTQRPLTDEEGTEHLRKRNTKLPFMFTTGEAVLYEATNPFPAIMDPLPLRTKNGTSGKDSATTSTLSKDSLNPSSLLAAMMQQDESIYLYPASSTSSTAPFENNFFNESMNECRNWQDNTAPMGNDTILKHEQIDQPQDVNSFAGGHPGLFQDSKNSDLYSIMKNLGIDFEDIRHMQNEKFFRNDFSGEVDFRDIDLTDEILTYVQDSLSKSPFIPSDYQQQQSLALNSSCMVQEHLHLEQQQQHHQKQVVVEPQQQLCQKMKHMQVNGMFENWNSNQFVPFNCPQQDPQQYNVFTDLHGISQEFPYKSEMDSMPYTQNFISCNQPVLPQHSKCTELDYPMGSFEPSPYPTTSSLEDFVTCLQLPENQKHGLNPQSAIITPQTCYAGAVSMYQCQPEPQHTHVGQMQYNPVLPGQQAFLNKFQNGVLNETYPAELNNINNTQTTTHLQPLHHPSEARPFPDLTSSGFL

[2] = system: AHR-regulated gene CYP1A1; experiment: In vitro assay 3: AHR-regulated CYP1A1 expression in human cell line (U937, qPCR); conditions: Homo sapiens, U-937, 6 h, read-out: Assay 3: Hum CYP1A1 Antagonism IC50 [M], U937 cells, 200 μM KA, 6 hours, qPCR
AHR [3] = target: T1, AHR; experiment: In vitro assay 1: antagonism in human cell line (transactivation assay, kynurenic acid prestimulated); conditions: Assay 1: AHR-luc Hum Antagonism IC50 [M], 150 μM kynurenic acid, 20 hours, firefly luciferase

IC50 (AHR [1]) | IC50 [2] | IC50 (AHR [3]) | SMILES
> 2e-05 M | 2e-06 M | 8.53e-08 M | COC(=O)[C@@H](CO)NC(=O)c1cc(-c2ccc(Cl)cc2)nn(-c2cccc(F)c2)c1=O [Example 315, methyl N-{[6-(4-chlorophenyl)-2-(3-fluorophenyl)-3-oxo-2,3-dihydropyridazin-4-yl]carbonyl}-D-serinate]
> 2e-05 M | 8.18e-08 M | 4.67e-08 M | O=C(N[C@H]1C[C@@H](O)C1)c1cc(-c2ccc(Cl)cc2)nn(-c2cccc(F)c2)c1=O [Example 324, 6-(4-chlorophenyl)-2-(3-fluorophenyl)-N-(cis-3-hydroxycyclobutyl)-3-oxo-2,3-dihydropyridazine-4-carboxamide]
> 2e-05 M | 1.42e-07 M | 7.87e-08 M | O=C(NCC1(O)COC1)c1cc(-c2ccc(Cl)cc2)nn(-c2cccc(F)c2)c1=O [Example 331, 6-(4-chlorophenyl)-2-(3-fluorophenyl)-N-[(3-hydroxyoxetan-3-yl)methyl]-3-oxo-2,3-dihydropyridazine-4-carboxamide]
> 2e-05 M | > 1e-06 M | 9.73e-07 M | Cc1cccc(-n2nc(-c3ccc(Cl)cc3)cc(C(=O)N[C@@H](C)CO)c2=O)c1 [Example 369, 6-(4-chlorophenyl)-N-[(2S)-1-hydroxypropan-2-yl]-2-(3-methylphenyl)-3-oxo-2,3-dihydropyridazine-4-carboxamide]
> 2e-05 M | > 3e-07 M | 2.65e-08 M | C[C@@H](CO)NC(=O)c1cc(-c2ccc(N3CCOCC3)cc2)nn(-c2cccc(F)c2)c1=O [Example 374, 2-(3-fluorophenyl)-N-[(2S)-1-hydroxypropan-2-yl]-6-[4-(morpholin-4-yl)phenyl]-3-oxo-2,3-dihydropyridazine-4-carboxamide]

The next lines start with the compound.

SMILES | IC50 (AHR [1]) | IC50 [2] | IC50 (AHR [3])
CC[C@@H](CO)NC(=O)c1cc(-c2ccc(Cl)c(Cl)c2)nn(-c2cccc(F)c2)c1=O [Example 306, 6-(3,4-Dichlorophenyl)-2-(3-fluorophenyl)-N-[(2S)-1-hydroxybutan-2-yl]-3-oxo-2,3-dihydropyridazine-4-carboxamide] | > 2e-05 M | 1.75e-07 M | 1.06e-07 M
COC[C@@H](CO)NC(=O)c1cc(-c2ccc(Cl)cc2)nn(-c2cccc(F)c2)c1=O [Example 314, 6-(4-chlorophenyl)-2-(3-fluorophenyl)-N-[(2R)-1-hydroxy-3-methoxypropan-2-yl]-3-oxo-2,3-dihydropyridazine-4-carboxamide] | > 2e-05 M | 2.31e-07 M | 9.54e-08 M
CC(C)[C@@H](CO)NC(=O)c1cc(-c2ccc(Cl)cc2)nn(-c2cccc(C#N)c2)c1=O [Example 361, 6-(4-chlorophenyl)-2-(3-cyanophenyl)-N-[(2S)-1-hydroxy-3-methylbutan-2-yl]-3-oxo-2,3-dihydropyridazine-4-carboxamide] | > 2e-05 M | 2.96e-07 M | 1.66e-07 M
Cc1cccc(-n2nc(-c3ccc(Cl)cc3)cc(C(=O)N[C@H](CO)C(C)C)c2=O)c1 [Example 365, 6-(4-chlorophenyl)-N-[(2S)-1-hydroxy-3-methylbutan-2-yl]-2-(3-methylphenyl)-3-oxo-2,3-dihydropyridazine-4-carboxamide] | > 2e-05 M | > 1e-06 M | 4.18e-07 M
CC(C)[C@@H](CO)NC(=O)c1cc(-c2ccc(N(C)C)c(Cl)c2)nn(-c2cccc(F)c2)c1=O [Example 375, 6-[3-chloro-4-(dimethylamino)phenyl]-2-(3-fluorophenyl)-N-[(2S)-1-hydroxy-3-methylbutan-2-yl]-3-oxo-2,3-dihydropyridazine-4-carboxamide] | > 2e-05 M | 5.73e-08 M | 3.05e-08 M
CN(C)c1ccc(-c2cc(C(=O)NC(CO)C(F)(F)F)c(=O)n(-c3cccc(F)c3)n2)cc1Cl (stereo not drawn) [Example 376, 6-[3-chloro-4-(dimethylamino)phenyl]-2-(3-fluorophenyl)-3-oxo-N-(1,1,1-trifluoro-3-hydroxypropan-2-yl)-2,3-dihydropyridazine-4-carboxamide] | > 2e-05 M | 1.12e-07 M | 3.97e-08 M
